inhibition, IC50 and Activity data for 17 molecules are collected here from ChEMBL document CHEMBL1149348, “Tubulin polymerization inhibitors with a fluorinated phthalimide skeleton derived from thalidomide” (Bioorg Med Chem Lett, 2006).

Active and inactive are the calls of the source. The rule behind the calls is not given here.

For assay [1], the target named is T1, Tubulin (Sus scrofa) (UniProt P02554+P02550). The experiment in a line: Inhibition of tubulin polymerization in porcine brain at 20 uM.
T1 sequence (P02550 whole entry, looked up): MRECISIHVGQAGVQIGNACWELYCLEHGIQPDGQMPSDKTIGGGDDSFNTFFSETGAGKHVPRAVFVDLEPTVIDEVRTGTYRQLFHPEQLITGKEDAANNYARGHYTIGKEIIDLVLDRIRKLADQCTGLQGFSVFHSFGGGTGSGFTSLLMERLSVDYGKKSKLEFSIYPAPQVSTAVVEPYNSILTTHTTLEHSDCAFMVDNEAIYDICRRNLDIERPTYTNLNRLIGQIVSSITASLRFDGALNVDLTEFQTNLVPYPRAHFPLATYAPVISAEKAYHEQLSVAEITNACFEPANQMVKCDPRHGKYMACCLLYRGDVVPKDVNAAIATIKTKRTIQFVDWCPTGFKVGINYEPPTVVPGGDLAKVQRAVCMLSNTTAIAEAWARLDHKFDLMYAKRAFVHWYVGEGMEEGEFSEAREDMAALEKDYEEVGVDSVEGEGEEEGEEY
T1 sequence (P02554 whole entry, looked up): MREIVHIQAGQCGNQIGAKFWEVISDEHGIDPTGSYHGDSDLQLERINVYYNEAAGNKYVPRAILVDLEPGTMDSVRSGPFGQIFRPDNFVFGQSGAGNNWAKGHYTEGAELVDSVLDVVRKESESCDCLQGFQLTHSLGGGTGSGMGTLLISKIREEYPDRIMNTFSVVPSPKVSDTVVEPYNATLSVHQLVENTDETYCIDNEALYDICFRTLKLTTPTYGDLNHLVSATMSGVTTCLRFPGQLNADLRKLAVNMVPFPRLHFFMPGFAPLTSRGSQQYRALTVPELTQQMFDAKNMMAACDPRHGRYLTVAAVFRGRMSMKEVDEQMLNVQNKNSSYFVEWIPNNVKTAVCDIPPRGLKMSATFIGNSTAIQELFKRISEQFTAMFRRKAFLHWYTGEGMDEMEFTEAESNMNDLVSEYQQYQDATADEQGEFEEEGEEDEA
The target in the next assay is Tubulin (Sus scrofa, UniProt P02554+P02550). The experiment in a line: Inhibition of tubulin polymerization in porcine brain.
For assay [2], the target named is T1, Tubulin (Sus scrofa). Put plainly: Inhibition of tubulin depolymerization in porcine brain at 10 uM.

`CCCc1cccc(CCC)c1N1C(=O)c2c(Cl)c(Cl)c(Cl)c(Cl)c2C1=O`: the inhibition at Tubulin (Sus scrofa) [1] turned out to be 0%.

`CC(C)c1cccc(C(C)C)c1N1C(=O)c2c(F)ccc(F)c2C1=O` came in with an IC50 at Tubulin of 7.8 µM. For the same molecule, the inhibition at Tubulin (Sus scrofa) [1] came out at 78%. Besides, the outcome on Tubulin (Sus scrofa) [2] was inactive.

Consider `O=C1c2c(Cl)c(Cl)c(Cl)c(Cl)c2C(=O)N1c1ccccc1`, for which the inhibition against Tubulin (Sus scrofa) [1] was determined as 6%.

The molecule `CC(C)c1cccc(C(C)C)c1N1C(=O)c2ccc(F)cc2C1=O` displayed an inhibition on Tubulin (Sus scrofa) [1] of 9%.

On Tubulin, `CC(C)c1cccc(C(C)C)c1N1C(=O)c2ccc(O)cc2C1=O` yielded an IC50 of 6.9 µM.

Consider `CCc1cccc(CC)c1N1C(=O)c2c(F)c(F)c(F)c(F)c2C1=O`, for which, on Tubulin (Sus scrofa) [1], the inhibition is 18%.

The molecule `CC(C)c1ccccc1N1C(=O)c2c(F)c(F)c(F)c(F)c2C1=O` registered an inhibition against Tubulin (Sus scrofa) [1] of 10%.

Molecule `CC(C)c1cc(Br)cc(C(C)C)c1N1C(=O)c2c(F)c(F)c(F)c(F)c2C1=O` displayed an inhibition on Tubulin (Sus scrofa) [1] of 11%.

Regarding `CC(C)c1cccc(C(C)C)c1N1C(=O)c2c(F)c(F)c(F)c(F)c2C1=O`, the IC50 against Tubulin was determined as 16 µM. The inhibition against Tubulin (Sus scrofa) [1] stood at 71%.

For the molecule `CC(C)c1ccc([N+](=O)[O-])c(C(C)C)c1N1C(=O)c2c(F)c(F)c(F)c(F)c2C1=O`, the inhibition against Tubulin (Sus scrofa) [1] was found to be 10%.

Molecule `CC(C)c1cccc(C(C)C)c1N1C(=O)c2ccccc2C1=O` gave an inhibition against Tubulin (Sus scrofa) [1] of 3%.

`Cc1cccc(C)c1N1C(=O)c2c(F)c(F)c(F)c(F)c2C1=O` returned an inhibition at Tubulin (Sus scrofa) [1] of 10%.

On to `O=C1c2c(F)c(F)c(F)c(F)c2C(=O)N1c1ccccc1`, for which the inhibition on Tubulin (Sus scrofa) [1] turned out to be 7%.

In turn, `CO[C@@H](/C(C)=C/C=C/C(C)=C/c1coc(C)n1)[C@@H](C)[C@@H]1C[C@H](O)[C@@]2(C)O[C@@H]2/C=C/[C@@H](C)[C@H]2C[C@H](CC(=O)O2)C[C@@H]2O[C@H]2C(=O)O1` came in with an inhibition against Tubulin (Sus scrofa) [1] of 81%.

`CC(C)c1cccc(C(C)C)c1N1C(=O)c2cc(F)c(F)cc2C1=O` gave an inhibition against Tubulin (Sus scrofa) [1] of 8%.

On to `CC(C)c1cccc(C(C)C)c1N1C(=O)c2cccc(F)c2C1=O`, for which the half-maximal inhibitory concentration (IC50) at Tubulin came to 17 µM. Besides, the inhibition against Tubulin (Sus scrofa) [1] was determined as 73%.

On Tubulin (Sus scrofa) [1], `Cc1cccc(C)c1N1C(=O)c2c(Cl)c(Cl)c(Cl)c(Cl)c2C1=O` came in with an inhibition of 0%.

Broadly, the inhibition is the relative decrease from the control value, in per cent. The low end stands for a response near the control, the high end for a response far below the control. The IC50 is the concentration at which inhibition is half-maximal. The low end stands for higher potency, the high end for lower potency.
